Assay results: US20250090482A1, “COMPOSITIONS AND METHODS FOR THE TREATMENT OF DEPRESSION” (Janssen Pharmaceuticals, Inc., priority 2022, published 2025)
“And” between values parts separate entries of the source, which are not always exact repeats. Equal entries are not always repeated.

Experiments:
[1] = system: TRD patients, 3MM biomarker signature positive or negative; test: 3MM biomarker signature analysis of MADRS treatment effect across esketamine TRD trials; type: in vivo, human; conditions: for treatment effect, improvement over placebo: end of double blind treatment
Experimental: (§1) Samples of venous blood were obtained from patients and healthy control subjects from subject described in Example 1 and from the other clinical trials referenced herein. Serum or plasma was prepared from the samples of venous blood. Measurements of human CRP and IL-6-R were performed in serum using an MSD Sector 6000 with the kits #K151STD and K151ALC (MesoScale Discovery, Rockville, MD). Human TNFα was quantified in serum using a Simoa HD-1 analyzer with kit #143 (Quanterix, Lexington, MA). All measures were performed according to kit manufacturer's recommendations.
(§2) As used in the following biomarker assay analysis, treatment (TRT) refers to treatment with intranasal esketamine plus optionally an oral antidepressant and placebo (PBO) refers to treatment with a placebo plus optionally an oral antidepressant.
(§3) The following biomarker signatures were employed: • 3MM: Inflammatory biomarker signature with positive status defined by CRP>3 mg/L and (TNFα>[…] or sIL6R>25 ng/mL). • 2MM: Inflammatory biomarker signature with positive status defined by CRP>3 mg/L and sIL6R>25 ng/mL. • CRP: Inflammatory biomarker signature with positive status defined by CRP>3 mg/L/
(§4) The 3MM signature was tested in clinical trials for adjunctive MDD, including treatment-resistant MDD (TRD) and MDD with suicidal ideation (SUI). […] Significant was driven by Esketamine (ESK) TRD trials.

[2] = system: MDD with suicidal ideation (SUI); test: 3MM biomarker signature analysis in esketamine trials with suicidal ideation (SUI); type: in vivo, human
Experimental: as §1, §2, §3, §4

Structure (SMILES): CN[C@]1(c2ccccc2Cl)CCCCC1=O [esketamine, (S)-2-(2-chlorophenyl)-2-(methylamino)cyclohexanone]
- treatment effect, improvement over placebo ([1]; 3MM biomarker signature negative subjects): 2 MADRS points and 2.0 MADRS points
- treatment effect, improvement over placebo ([1]; 3MM biomarker signature positive subjects): 7.8 MADRS points
- difference between subtypes (Signature advantage) ([1]; 3MM positive minus negative): 5.8 point
- prediction of treatment effect by 3MM status at baseline [2]: did not predict treatment effect
